# From patent publication US10195187B2, “Oxybutynin-xanomeline transdermal therapeutic system combinations” (Chase Pharmaceuticals Corporation, priority 2015, dated 2019)
# What was measured:
# muscarinic receptors = settings: oral and iontophoretic patch administration; cited from earlier work
# Male Swiss mice [1] = assay: Antagonism of xanomeline-induced diarrhea in mice by oxybutynin (fecal pellet count); assay type: in vivo, mouse; settings: oxybutynin i.p. 0.3 to 30 mg/kg, 30 min before xanomeline 30 mg/kg
# Method: The total number of fecal pellets for each mouse was counted over time. An analysis of variance (ANOVA) was performed on the results. Fisher's Protected Least Significant Difference was used for pairwise comparisons; p values≤0.05 were considered significant. Grubbs' test (http (hypertext transfer protocol) www at graphpad.com/quickcalcs/Grubbs1.cfm) was used to detect outliers for each parameter in each experimental group. […] Mice were placed individually in cages without any bedding materials. During the experiment the number of fecal pellets was counted at different time-points as outlined below:
# T0: administration of oxybutinin.
# T30 min: administration of vehicle or xanomeline.
# T 30 min to T 2.5 h: counting of accumulated fecal pellets excreted.
# T+2.5 h to T+4.5 h: counting of accumulated fecal pellets excreted.
# The total number of fecal pellets for each mouse was counted over time. An analysis of variance (ANOVA) was performed on the results. Fisher's Protected Least Significant Difference was used for pairwise comparisons. The p value≤0.05 were considered significant. Grubbs' test (http (hypertext transfer protocol) www at graphpad.com/quickcalcs/Gnibbs1.cfm) was used to detect outliers for each parameter in each experimental group.
# Male Swiss mice [2] = assay: T-maze continuous alternation task (T-CAT) in mice; assay type: in vivo, mouse
# From the text: Evaluation of Cognition with Oxybutynin and Xanomeline in the T-maze Alternation Task in Mice
# The T-maze continuous alternation task (T-CAT) is useful as model for studying compounds with cognitive enhancing properties. The T-maze consists of 2 choice arms and 1 start arm mounted to a square center. Manual doors are provided to close specific arms during the force choice alternation task. Male Swiss mice (4-6 weeks old), N=10 per treatment group were used, and were pre-treated with:
# Thirty minutes later mice were treated with either vehicle or one of 4 doses of xanomeline:
# a dose that caused diarrhea.
# Mice were randomly assigned to one of the different experimental treatment groups. Each animal was identified by its group name, cage number, series (day) of experiment, and number (1 to 10) written with permanent ink on the tail.
# The T-maze apparatus is made of gray Plexiglas with a main stem (55 cm long×10 cm wide×20 cm high) and two arms (30 cm long×10 cm wide×20 cm high) positioned at 90 degree angle relative to the main stem. A start box (15 cm long×10 cm wide) is separated from the main stem by a guillotine door. Horizontal doors are also provided to close specific arms during the force choice alternation task. The experimental protocol consisted of one single session, which started with 1 “forced-choice” trial, followed by 14 “free-choice” trials. In the first “forced-choice” trial, animals were confined for 5 seconds to the start arm and then were released while either the left or the right goal arm was blocked by the horizontal door. Animals then negotiated the maze, eventually entering the open goal arm, and returned to the start position. […] The percentage of alternation over the 14 free-choice trials was determined for each mouse and was used as an index of working memory performance. […] The drug-induced improvement of memory was calculated by setting the respective response of the saline/vehicle as 100% and that of the test group as 0% reversion. […]
# [3] = McCrery and Appell 2006; cited from earlier work
# Male Swiss mice [4] = assay: Dose-response to xanomeline in a mouse model of diarrhea (fecal pellet count); assay type: in vivo; settings: xanomeline i.p. 0.3 to 30 mg/kg
# From the text: Study 1—Establishment of the Dose-Response to Xanomeline in a Mouse Model of Diarrhea.
# Male Swiss mice (4-6 weeks old), N=10 per treatment group were used, and treated intra-peritoneally (i.p.) with either vehicle (vehicle group) or increasing doses of xanomeline, a representative muscarinic agonist. Mice were randomly assigned to one of two experimental groups (vehicle; or increasing doses of xanomeline). Each animal was identified by its group name, cage number, series (day) of experiment, and number (1 to 10) written with permanent ink on the tail. Mice were placed individually in cages without any bedding materials. During the experiment the number of fecal pellets were counted at different time-points, starting one hour before the time of the administration of the test compound (T0), as outlined below:
# T−1 h to T0: counting of the accumulated fecal pellets excreted.
# T0: administration of the test compound.
# T0 to T+2 h: counting of the accumulated fecal pellets excreted.
# T+2 h to T+4 h: counting of the accumulated fecal pellets excreted.
# The total number of fecal pellets for each mouse was counted over time. An analysis of variance (ANOVA) was performed on the results. […] During the experiment the number of fecal pellets was counted at different time-points as outlined below: […]
# [5] = test system: patients with Alzheimer disease; settings: cited from earlier work
structure (smiles),measurement,setting,value
NC(=O)C(c1ccccc1)(c1ccccc1)[C@@H]1CCN(CCc2ccc3c(c2)CCO3)C1 [darifenacin],effectiveness relative to other muscarinic antagonists in combination with muscarinic agonists,muscarinic receptors,less effective than the other muscarinic antagonists
"CCN(CC)CC#CCOC(=O)C(O)(c1ccccc1)C1CCCCC1 (stereo not shown) [oxybutynin, 4-diethylaminobut-2-ynyl 2-cyclohexyl-2-hydroxy-2-phenylethanoate]",antagonism of xanomeline-induced diarrhea (fecal pellets),Male Swiss mice [1],dose-dependently antagonized the diarrhea induced by xanomeline
same,ability to perform the T-maze test after oxybutynin pretreatment,Male Swiss mice [2]; i.p. oxybutynin 30 min before xanomeline,restored the animals' ability to perform the T-maze test
same,crossing of the blood brain barrier,[3],able to cross the blood brain barrier
"CCCCCCOc1nsnc1C1=CCCN(C)C1 [xanomeline, 3-[4-(Hexyloxy)-1,2,5-thiadiazol-3-yl]-1,2,5,6-tetrahydro-1-methylpyridine]",diarrhea (number of fecal pellets excreted),Male Swiss mice [4],dose-dependently causes diarrhea
same,ability to perform the T-maze test at the higher dose,"Male Swiss mice [2]; i.p. xanomeline, higher dose (dose that caused diarrhea)",animals were too sick to perform the test
same,performance in the T-maze (percentage of alternation),"Male Swiss mice [2]; i.p. xanomeline, mice",dose-dependent increase in performance in the T-maze
same,cognitive and behavioral symptoms of Alzheimer disease compared to placebo,"[5]; 6-month trial, Bodick et al, 1997",significantly improve cognitive and behavioral symptoms of Alzheimer disease
same,discontinuation rate,"[5]; Alzheimer's patient population, Mirza et al. 2003",higher than 50%
same,side effects,"[5]; patients with Alzheimer disease, Bodick et al, 1997","dose-dependent unacceptable side effects, including bradycardia, gastro-intestinal distress, excessive salivation, and sweating"
